The source made the active and inactive calls.
What was measured:
[1] = target: Tyrosine-protein kinase SYK (Homo sapiens, UniProt P43405)
[2] = target: Ribosomal protein S6 kinase alpha-4 (Homo sapiens, UniProt O75676)
[3] = target: T1, Serine/threonine-protein kinase TBK1 (Homo sapiens, UniProt Q9UHD2)
T1 sequence (Q9UHD2 whole entry): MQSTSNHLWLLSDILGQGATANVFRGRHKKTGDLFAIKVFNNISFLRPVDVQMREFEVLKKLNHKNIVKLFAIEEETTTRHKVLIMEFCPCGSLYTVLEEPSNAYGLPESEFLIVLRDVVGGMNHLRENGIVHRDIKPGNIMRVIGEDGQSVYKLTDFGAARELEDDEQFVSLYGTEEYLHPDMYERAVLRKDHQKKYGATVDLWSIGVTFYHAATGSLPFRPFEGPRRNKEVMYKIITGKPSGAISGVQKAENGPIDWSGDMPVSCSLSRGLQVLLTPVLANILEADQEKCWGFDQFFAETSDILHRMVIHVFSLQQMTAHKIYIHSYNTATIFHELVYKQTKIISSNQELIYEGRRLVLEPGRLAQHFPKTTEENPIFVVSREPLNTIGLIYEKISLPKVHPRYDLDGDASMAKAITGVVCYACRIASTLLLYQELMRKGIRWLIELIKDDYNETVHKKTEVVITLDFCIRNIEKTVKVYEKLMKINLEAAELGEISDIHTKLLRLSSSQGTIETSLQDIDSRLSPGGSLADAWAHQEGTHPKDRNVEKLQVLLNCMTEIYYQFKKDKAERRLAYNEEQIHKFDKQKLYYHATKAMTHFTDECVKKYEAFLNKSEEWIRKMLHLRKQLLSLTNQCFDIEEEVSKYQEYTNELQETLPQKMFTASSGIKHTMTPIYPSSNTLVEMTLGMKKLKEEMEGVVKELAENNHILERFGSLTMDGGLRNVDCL

[4] = target: T2, Ras-related protein Rab-10 (Homo sapiens, UniProt P61026)
T2 sequence (P61026 whole entry): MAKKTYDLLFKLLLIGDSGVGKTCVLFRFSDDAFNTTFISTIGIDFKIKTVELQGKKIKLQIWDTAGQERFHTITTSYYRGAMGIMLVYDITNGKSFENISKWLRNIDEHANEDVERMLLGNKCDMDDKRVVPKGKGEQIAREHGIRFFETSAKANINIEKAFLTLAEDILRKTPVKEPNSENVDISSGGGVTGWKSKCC

Pyridoxal kinase = target: T3, Pyridoxal kinase (Homo sapiens, UniProt O00764)
T3 sequence (O00764 whole entry): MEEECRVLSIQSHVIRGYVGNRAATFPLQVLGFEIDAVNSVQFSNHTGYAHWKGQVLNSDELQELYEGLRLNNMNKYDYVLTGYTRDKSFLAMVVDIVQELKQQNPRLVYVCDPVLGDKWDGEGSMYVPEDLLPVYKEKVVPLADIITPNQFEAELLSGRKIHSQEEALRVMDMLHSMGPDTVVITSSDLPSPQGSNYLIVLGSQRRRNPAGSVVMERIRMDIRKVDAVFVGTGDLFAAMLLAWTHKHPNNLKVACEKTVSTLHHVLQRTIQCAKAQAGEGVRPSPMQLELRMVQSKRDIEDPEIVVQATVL

[5] = target: T4, Eukaryotic translation initiation factor 5B (Homo sapiens, UniProt O60841)
T4 sequence (O60841 whole entry): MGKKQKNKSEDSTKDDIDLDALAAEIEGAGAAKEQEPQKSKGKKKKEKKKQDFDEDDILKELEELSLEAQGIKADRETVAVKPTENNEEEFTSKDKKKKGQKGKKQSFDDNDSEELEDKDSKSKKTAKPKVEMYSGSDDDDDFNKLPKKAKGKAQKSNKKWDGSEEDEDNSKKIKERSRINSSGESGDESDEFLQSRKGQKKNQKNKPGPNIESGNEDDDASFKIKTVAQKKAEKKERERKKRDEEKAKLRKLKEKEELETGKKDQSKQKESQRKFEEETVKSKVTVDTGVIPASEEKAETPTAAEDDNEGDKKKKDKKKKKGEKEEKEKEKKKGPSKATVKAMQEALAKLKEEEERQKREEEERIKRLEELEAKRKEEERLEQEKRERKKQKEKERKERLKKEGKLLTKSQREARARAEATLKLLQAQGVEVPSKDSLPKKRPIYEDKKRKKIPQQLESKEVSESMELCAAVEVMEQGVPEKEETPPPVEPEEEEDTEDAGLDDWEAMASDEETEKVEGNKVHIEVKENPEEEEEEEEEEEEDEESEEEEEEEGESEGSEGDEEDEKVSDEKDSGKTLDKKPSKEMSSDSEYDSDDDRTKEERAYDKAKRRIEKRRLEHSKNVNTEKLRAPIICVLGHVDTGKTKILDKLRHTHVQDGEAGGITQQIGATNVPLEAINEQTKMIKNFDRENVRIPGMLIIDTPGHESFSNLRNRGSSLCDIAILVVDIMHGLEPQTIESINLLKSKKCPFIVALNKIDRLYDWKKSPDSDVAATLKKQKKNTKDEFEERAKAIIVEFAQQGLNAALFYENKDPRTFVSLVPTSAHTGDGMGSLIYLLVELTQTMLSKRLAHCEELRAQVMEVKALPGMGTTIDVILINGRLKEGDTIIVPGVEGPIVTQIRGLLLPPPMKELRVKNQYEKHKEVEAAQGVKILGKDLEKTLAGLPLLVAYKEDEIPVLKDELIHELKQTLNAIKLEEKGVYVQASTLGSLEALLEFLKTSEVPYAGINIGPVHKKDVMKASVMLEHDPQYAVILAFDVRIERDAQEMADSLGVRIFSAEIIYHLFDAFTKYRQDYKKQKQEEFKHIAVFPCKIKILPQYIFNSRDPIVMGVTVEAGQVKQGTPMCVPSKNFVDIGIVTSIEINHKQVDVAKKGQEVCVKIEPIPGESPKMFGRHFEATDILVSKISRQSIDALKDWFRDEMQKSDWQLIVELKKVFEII
Note: in the data inactive means no Kd found up to 30 µM.

Sequence of Ribosomal protein S6 kinase alpha-4 (O75676 whole entry): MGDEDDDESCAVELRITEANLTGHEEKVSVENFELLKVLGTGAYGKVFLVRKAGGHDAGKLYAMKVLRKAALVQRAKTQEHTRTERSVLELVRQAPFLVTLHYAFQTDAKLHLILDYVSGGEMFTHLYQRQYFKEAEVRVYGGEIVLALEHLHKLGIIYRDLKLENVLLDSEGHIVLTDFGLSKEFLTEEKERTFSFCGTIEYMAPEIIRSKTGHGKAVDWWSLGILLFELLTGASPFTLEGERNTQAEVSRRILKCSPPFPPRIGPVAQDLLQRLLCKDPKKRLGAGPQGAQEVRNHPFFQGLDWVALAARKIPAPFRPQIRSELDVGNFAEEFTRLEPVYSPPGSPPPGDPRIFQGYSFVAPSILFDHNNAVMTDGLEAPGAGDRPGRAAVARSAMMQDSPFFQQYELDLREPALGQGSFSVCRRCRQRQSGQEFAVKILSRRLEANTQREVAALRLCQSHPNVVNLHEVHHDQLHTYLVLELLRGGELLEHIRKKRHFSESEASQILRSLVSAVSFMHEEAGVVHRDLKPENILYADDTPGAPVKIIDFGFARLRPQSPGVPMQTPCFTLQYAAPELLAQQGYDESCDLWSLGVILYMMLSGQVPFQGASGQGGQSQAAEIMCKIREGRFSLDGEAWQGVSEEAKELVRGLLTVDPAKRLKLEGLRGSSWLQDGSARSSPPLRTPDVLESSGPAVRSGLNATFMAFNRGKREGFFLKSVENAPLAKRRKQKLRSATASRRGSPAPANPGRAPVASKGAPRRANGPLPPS

Structure (SMILES)	Kd [1]	Kd [2]	Kd [3]	Kd [4]	Kd (Pyridoxal kinase)	Kd [5]
C[C@@H](Oc1cc(C(=O)Nc2ccc(C(=O)N3CCN(C)CC3)cc2)nnc1N)c1c(Cl)ccc(F)c1Cl	> 30 µM (inactive)	> 30 µM (inactive)	> 30 µM (inactive)	> 30 µM (inactive)	> 30 µM (inactive)	
CCNC(=O)C#Cc1ccc2c(c1)NC(=O)/C2=C(\Nc1ccc(CN(C)C)cc1)c1ccccc1	> 30 µM (inactive)	1.46 µM (active)	0.759 µM (active)	> 30 µM (inactive)	> 30 µM (inactive)	
COCc1c(-c2ccc(NC(=O)Nc3cc(C(F)(F)F)ccc3F)c(F)c2)c2c(N)ncnn2c1CN1CCOCC1	> 30 µM (inactive)	> 30 µM (inactive)	> 30 µM (inactive)	> 30 µM (inactive)	> 30 µM (inactive)	
COc1cc(Nc2ncc3c(n2)-c2ccc(Cl)cc2C(c2c(F)cccc2OC)=NC3)ccc1C(=O)O [ALISERTIB]				1.35 µM	> 30 µM (inactive)	> 30 µM (inactive)
CNC(=O)c1ccccc1Sc1ccc2c(/C=C/c3ccccn3)n[nH]c2c1 [AXITINIB]				> 30 µM (inactive)	> 30 µM (inactive)	> 30 µM (inactive)
COc1cc([C@@H]2c3cc4c(cc3[C@H](O)[C@H]3COC(=O)[C@@H]23)OCO4)cc(OC)c1OC [AXL-1717]	> 30 µM (inactive)	> 30 µM (inactive)	> 30 µM (inactive)	> 30 µM (inactive)	> 30 µM (inactive)	
NC(=O)Nc1cc(-c2cccc(F)c2)sc1C(=O)N[C@H]1CCCNC1 [AZD-7762]	1.48 µM (active)	0.879 µM (active)	> 30 µM (inactive)	> 30 µM (inactive)	> 30 µM (inactive)	
Cc1cc(Nc2ncc(Cl)c(Nc3ccccc3S(=O)(=O)C(C)C)n2)c(OC(C)C)cc1C1CCNCC1 [CERITINIB]	> 30 µM (inactive)	> 30 µM (inactive)	> 30 µM (inactive)	> 30 µM (inactive)	> 30 µM (inactive)	
Cn1cc(C2=C(c3cn(C4CCN(Cc5ccccn5)CC4)c4ccccc34)C(=O)NC2=O)c2ccccc21 [ENZASTAURIN]				> 30 µM (inactive)	> 30 µM (inactive)	
Cc1cccc(-c2nn3c(c2-c2ccnc4ccc(C(N)=O)cc24)CCC3)n1 [GALUNISERTIB]	> 30 µM (inactive)	> 30 µM (inactive)	> 30 µM (inactive)	> 30 µM (inactive)	> 30 µM (inactive)	
CNC(=O)c1nn(C)c2c1C(C)(C)Cc1cnc(Nc3ccc(N4CCN(C)CC4)cc3)nc1-2 [MILCICLIB]	> 30 µM (inactive)	> 30 µM (inactive)	2.09 µM (active)	> 30 µM (inactive)	> 30 µM (inactive)	
NC1(c2ccc(-c3nc4ccn5c(=O)[nH]nc5c4cc3-c3ccccc3)cc2)CCC1 [MK-2206]	> 30 µM (inactive)	> 30 µM (inactive)	> 30 µM (inactive)	> 30 µM (inactive)	> 30 µM (inactive)	
CN(C[C@@H]1COCCO1)S(=O)(=O)Nc1ccc2ccc3ncc(-c4cnn(C)c4)cc3c(=O)c2c1 [MK-2461]	> 30 µM (inactive)	> 30 µM (inactive)	> 30 µM (inactive)	> 30 µM (inactive)	> 30 µM (inactive)	
FC(F)(F)c1ccc(/C=C/c2nc(COc3ccc(CCCCn4ccnn4)cc3)co2)cc1 [MUBRITINIB]	> 30 µM (inactive)	> 30 µM (inactive)	> 30 µM (inactive)	> 30 µM (inactive)	> 30 µM (inactive)	
CCOc1cc2ncc(C#N)c(Nc3ccc(F)c(Cl)c3)c2cc1NC(=O)/C=C/CN(C)C [PELITINIB]	> 30 µM (inactive)	> 30 µM (inactive)	> 30 µM (inactive)	> 30 µM (inactive)	> 30 µM (inactive)	
CO[C@H]1C[C@@H]2CC[C@@H](C)[C@@](O)(O2)C(=O)C(=O)N2CCCC[C@H]2C(=O)O[C@H]([C@H](C)C[C@@H]2CC[C@@H](OP(C)(C)=O)[C@H](OC)C2)CC(=O)[C@H](C)/C=C(\C)[C@@H](O)[C@@H](OC)C(=O)[C@H](C)C[C@H](C)/C=C/C=C/C=C/1C [RIDAFOROLIMUS]	> 30 µM (inactive)	> 30 µM (inactive)	> 30 µM (inactive)	> 30 µM (inactive)	> 30 µM (inactive)	
CN1CCN(CCOc2cc(OC3CCOCC3)c3c(Nc4c(Cl)ccc5c4OCO5)ncnc3c2)CC1 [SARACATINIB]	> 30 µM (inactive)	> 30 µM (inactive)	> 30 µM (inactive)	> 30 µM (inactive)	> 30 µM (inactive)	
COc1cc2c(Nc3ccc(Cl)c(Cl)c3F)ncnc2cc1OC[C@@H]1C[C@@H]2CN(C)C[C@@H]2C1 [TESEVATINIB]	> 30 µM (inactive)	> 30 µM (inactive)	> 30 µM (inactive)	> 30 µM (inactive)	> 30 µM (inactive)	
C[C@@H](NC(=O)c1ncnc(N)c1Cl)c1ncc(C(=O)Nc2cc(C(F)(F)F)c(Cl)cn2)s1 [TOVORAFENIB]	> 30 µM (inactive)	> 30 µM (inactive)	> 30 µM (inactive)	> 30 µM (inactive)	> 30 µM (inactive)	
Cn1ncc(Cl)c1-c1cc(C(=O)N[C@H](CN)Cc2ccc(F)c(F)c2)oc1Cl [UPROSERTIB]	> 30 µM (inactive)	> 30 µM (inactive)	> 30 µM (inactive)	> 30 µM (inactive)	> 30 µM (inactive)	

The remaining lines, values ahead:

Kd [1]	Kd [2]	Kd [3]	Kd [4]	Kd (Pyridoxal kinase)	Kd [5]	Structure (SMILES)
> 30 µM (inactive)	> 30 µM (inactive)	> 30 µM (inactive)	> 30 µM (inactive)	> 30 µM (inactive)		Nc1ncnc2c1c(-c1cccc(OCc3ccccc3)c1)cn2[C@H]1C[C@@H](CN2CCC2)C1 [AEW-541]
> 30 µM (inactive)	> 30 µM (inactive)	> 30 µM (inactive)	> 30 µM (inactive)	> 30 µM (inactive)		C#Cc1cccc(Nc2ncnc3cc(OC)c(OCCCCCCC(=O)NO)cc23)c1 [CUDC-101]
> 30 µM (inactive)	> 30 µM (inactive)	> 30 µM (inactive)	> 30 µM (inactive)	> 30 µM (inactive)		CCn1cc(-c2ccnc3[nH]c(-c4cccc(CN(C)C)c4)cc23)c(-c2ccc(NC(=O)N(C)C)cc2)n1 [GSK-1070916]
	0.156 µM (active)		> 30 µM (inactive)	> 30 µM (inactive)		CC(=O)NCC(=O)N1[C@@H]2CC[C@H]1c1ccc(Nc3ncc(C(F)(F)F)c(NC4CCC4)n3)cc12 [PF-03814735]
